PubChem BioAssay AID248 (DTP/NCI, 2004)
Where “and” joins values, the source holds several entries; their conditions need not be identical. Identical values can stand only once. Toxic doses and inconclusive results are not listed. Cut-off read from the data, not from the text of the source: active = T/C of 150% or more; inactive = T/C below 125%.

Tested on: L1210 leukemia ip in BDF1 mice, survival T/C
Test: NCI In Vivo Anticancer Drug Screen. Data for tumor model L1210 Leukemia (intraperitoneal) in B6D2F1 (BDF1) mice
Conditions: endpoint: mean survival time, higher = longer survival
Outline: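 Survival endpoint. Drug-treated group vs vehicle group, expressed as T divided by C. Tumor passaged by transplantation.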

[1] = dose: 100.0 mg/kg/injection, schedule: Q01DX001 (ip), vehicle: saline
[2] = dose: 100.0 mg/kg/injection, schedule: Q01DX009 (ip), vehicle: saline
[3] = dose: 200.0 mg/kg/injection, schedule: Q01DX001 (ip), vehicle: saline
[4] = dose: 200.0 mg/kg/injection, schedule: Q01DX009 (ip), vehicle: saline
[5] = dose: 400.0 mg/kg/injection, schedule: Q01DX001 (ip), vehicle: saline
[6] = dose: 400.0 mg/kg/injection, schedule: Q01DX009 (ip), vehicle: saline
[7] = dose: 100.0 mg/kg/injection, schedule: Q01DX009 (ip), vehicle: saline with Tween-80
[8] = dose: 200.0 mg/kg/injection, schedule: Q01DX009 (ip), vehicle: saline with Tween-80
[9] = dose: 400.0 mg/kg/injection, schedule: Q01DX009 (ip), vehicle: saline with Tween-80

Measured: T/C

O=C(O)CCC(=O)O
inactive: dose: 10.0 mg/kg/injection, schedule: Q01DX009 (ip), vehicle: saline 103 % of control and 101 % of control | dose: 20.0 mg/kg/injection, schedule: Q01DX009 (ip), vehicle: saline 100 % of control and 103 % of control | dose: 31.25 mg/kg/injection, schedule: Q01DX015 (ip), vehicle: water 96 % of control | dose: 40.0 mg/kg/injection, schedule: Q01DX009 (ip), vehicle: saline 97 % of control | dose: 62.5 mg/kg/injection, schedule: Q01DX015 (ip), vehicle: water 89 % of control | dose: 62.5 mg/kg/injection, schedule: Q01DX Z (ip), vehicle: water 95 % of control and 91 % of control | dose: 80.0 mg/kg/injection, schedule: Q01DX009 (ip), vehicle: saline 97 % of control and 99 % of control | [1] 96 % of control | [2] 97 % of control and 102 % of control and 92 % of control | dose: 125.0 mg/kg/injection, schedule: Q01DX015 (ip), vehicle: water 96 % of control and 87 % of control | dose: 125.0 mg/kg/injection, schedule: Q01DX Z (ip), vehicle: water 91 % of control and 88 % of control | dose: 160.0 mg/kg/injection, schedule: Q01DX009 (ip), vehicle: saline 93 % of control and 99 % of control | [3] 102 % of control | [4] 94 % of control and 97 % of control and 105 % of control | dose: 250.0 mg/kg/injection, schedule: Q01DX001 (ip), vehicle: water 100 % of control and 91 % of control | dose: 250.0 mg/kg/injection, schedule: Q01DX015 (ip), vehicle: water 93 % of control | dose: 250.0 mg/kg/injection, schedule: Q01DX Z (ip), vehicle: water 94 % of control and 100 % of control | [5] 107 % of control | [6] 105 % of control | dose: 500.0 mg/kg/injection, schedule: Q01DX001 (ip), vehicle: water 100 % of control | dose: 500.0 mg/kg/injection, schedule: Q01DX Z (ip), vehicle: water 94 % of control and 101 % of control

CN(C(=O)CCC(=O)O)c1cc([N+](=O)[O-])ccc1OCc1ccccc1
inactive: dose: 50.0 mg/kg/injection, schedule: Q01DX001 (ip), vehicle: saline 108 % of control | [1] 100 % of control | [3] 105 % of control | [5] 109 % of control

O=C1C(=O)c2ccccc2C(O)=C1Nc1ccc(Cl)cc1
inactive: [1] 94 % of control | [3] 93 % of control | [5] 93 % of control

CC(=O)CCCN1C(=O)c2ccccc2C1=O
inactive: [7] 106 % of control | dose: 100.0 mg/kg/injection, schedule: Q04DX003 (ip), vehicle: saline with Tween-80 101 % of control | [8] 96 % of control | dose: 200.0 mg/kg/injection, schedule: Q04DX003 (ip), vehicle: saline with Tween-80 91 % of control | [9] 93 % of control | dose: 400.0 mg/kg/injection, schedule: Q04DX003 (ip), vehicle: saline with Tween-80 102 % of control

Cc1n(CC(C)C)c2c([n+]1CC(=O)c1ccc([N+](=O)[O-])cc1)C(=O)c1ccccc1C2=O
inactive: dose: 5.0 mg/kg/injection, schedule: Q01DX001 (ip), vehicle: carboxymethylcellulose (CMC) 93 % of control | dose: 10.0 mg/kg/injection, schedule: Q01DX001 (ip), vehicle: carboxymethylcellulose (CMC) 86 % of control | dose: 20.0 mg/kg/injection, schedule: Q01DX001 (ip), vehicle: carboxymethylcellulose (CMC) 97 % of control

O=C(NC1CCC(C(=O)O)CC1)OCc1ccccc1 (centres undefined)
inactive: [1] 98 % of control | [2] 109 % of control | dose: 100.0 mg/kg/injection, schedule: Q04DX003 (ip), vehicle: acetone 96 % of control | [3] 102 % of control | [4] 100 % of control | dose: 200.0 mg/kg/injection, schedule: Q04DX003 (ip), vehicle: acetone 102 % of control | [5] 98 % of control | [6] 105 % of control | dose: 400.0 mg/kg/injection, schedule: Q04DX003 (ip), vehicle: acetone 98 % of control

O=Cc1ccc(O)c(Br)c1
inactive: [7] 100 % of control | [8] 109 % of control | [9] 88 % of control

Cc1ccc(Br)c2c1CCC2=O
inactive: dose: 100.0 mg/kg/injection, schedule: Q01DX001 (ip), vehicle: Klucel (hydroxypropylcellulose) (HPC) 93 % of control | dose: 200.0 mg/kg/injection, schedule: Q01DX001 (ip), vehicle: Klucel (hydroxypropylcellulose) (HPC) 100 % of control | dose: 400.0 mg/kg/injection, schedule: Q01DX001 (ip), vehicle: Klucel (hydroxypropylcellulose) (HPC) 93 % of control

O=C(C[n+]1ccccc1)N/N=C/c1ccccc1O
inactive: dose: 12.5 mg/kg/injection, schedule: Q01DX009 (ip), vehicle: saline with Tween-80 86 % of control | dose: 25.0 mg/kg/injection, schedule: Q01DX009 (ip), vehicle: saline with Tween-80 86 % of control | dose: 50.0 mg/kg/injection, schedule: Q01DX009 (ip), vehicle: saline with Tween-80 96 % of control

O=C(NCCCCCCCNC(=O)Nc1ccc(C2=NCCN2)cc1)Nc1ccc(C2=NCCN2)cc1
inactive: dose: 62.0 mg/kg/injection, schedule: Q01DX Z (ip), vehicle: carboxymethylcellulose (CMC) 107 % of control | dose: 125.0 mg/kg/injection, schedule: Q01DX Z (ip), vehicle: carboxymethylcellulose (CMC) 98 % of control | dose: 250.0 mg/kg/injection, schedule: Q01DX Z (ip), vehicle: carboxymethylcellulose (CMC) 98 % of control

Nc1ccc2c(c1)OCO2
inactive: dose: 90.0 mg/kg/injection, schedule: Q04DX003 (sc), vehicle: olive oil, sesame oil, peanut oil 106 % of control | dose: 100.0 mg/kg/injection, schedule: Q01DX009 (sc), vehicle: olive oil, sesame oil, peanut oil 107 % of control | dose: 100.0 mg/kg/injection, schedule: Q04DX003 (sc), vehicle: olive oil, sesame oil, peanut oil 101 % of control | dose: 133.0 mg/kg/injection, schedule: Q04DX003 (sc), vehicle: olive oil, sesame oil, peanut oil 119 % of control | dose: 200.0 mg/kg/injection, schedule: Q01DX009 (sc), vehicle: olive oil, sesame oil, peanut oil 112 % of control | dose: 400.0 mg/kg/injection, schedule: Q04DX003 (sc), vehicle: olive oil, sesame oil, peanut oil 108 % of control

O=P(CCc1ccccc1)(OCCCl)OCCCl
inactive: dose: 100.0 mg/kg/injection, schedule: Q04DX002 (ip), vehicle: saline with Tween-80 99 % of control | dose: 200.0 mg/kg/injection, schedule: Q04DX002 (ip), vehicle: saline with Tween-80 96 % of control | dose: 400.0 mg/kg/injection, schedule: Q04DX002 (ip), vehicle: saline with Tween-80 92 % of control

CCOC(=O)C(Cl)c1ccc(OC)cc1 (centres undefined)
inactive: dose: 100.0 mg/kg/injection, schedule: Q01DX009 (ip), vehicle: other 111 % of control | dose: 200.0 mg/kg/injection, schedule: Q01DX009 (ip), vehicle: other 98 % of control | dose: 400.0 mg/kg/injection, schedule: Q01DX009 (ip), vehicle: other 102 % of control

CC(C)NC(=O)C1CC2c3cccc4c3c(cn4CN(C)C)CC2N(C)C1 (centres undefined)
inactive: dose: 2.5 mg/kg/injection, schedule: Q04DX003 (ip), vehicle: saline 101 % of control | dose: 5.0 mg/kg/injection, schedule: Q04DX003 (ip), vehicle: saline 101 % of control | dose: 10.0 mg/kg/injection, schedule: Q04DX003 (ip), vehicle: saline 100 % of control | dose: 12.5 mg/kg/injection, schedule: Q04DX002 (ip), vehicle: saline 113 % of control | dose: 20.0 mg/kg/injection, schedule: Q04DX003 (ip), vehicle: saline 101 % of control | dose: 25.0 mg/kg/injection, schedule: Q04DX002 (ip), vehicle: saline 108 % of control

C/C=C/CC1(c2ccccc2)C(=O)NC(=S)NC1=O
inactive: dose: 75.0 mg/kg/injection, schedule: Q01DX001 (ip), vehicle: other 108 % of control | dose: 150.0 mg/kg/injection, schedule: Q01DX001 (ip), vehicle: other 107 % of control | dose: 300.0 mg/kg/injection, schedule: Q01DX001 (ip), vehicle: other 103 % of control
